{
  "source": "patent EP3389676B1",
  "about": "“DOSAGE REGIMEN OF SODIUM SELENITE IN THE TREATMENT OF CANCER” (Pharma Nord ApS, priority 2015, dated 2017)",
  "key": {"[1]": {"test_system": "patients with advanced cancer diseases", "conditions": "SECAR clinical phase I study; intermittent daily infusions (20-40 minutes); Brodin et al. 2014; cited from earlier work"}, "[2]": {"assay": "Pharmacokinetics: plasma selenium by ICP-MS, one compartment infusion model", "assay_type": "in vivo, human", "method": "Blood samples are collected about 5 minutes prior and post infusion at all treatments. The plasma fractions are obtained by centrifugation and stored at -70°C until analyses.\nPharmacokinetic analyses are performed by using the Win-Nonlin program Standard Edition version 1.5 (Pharsight Corporation, Mountain View, CA, USA).\nThe one compartment infusion model was used for the evaluation of the pharmacokinetics. The reciprocal concentrations were used as weights for the iterative procedure. […] AUC values during the entire treatment period (i.e. from day 0 to day 35) were evaluated by applying the trapezoidal rule to estimated time-concentration curves."}, "cancer patients": {"test_system": "cancer patients", "conditions": "cumulative intravenous administration of 100 mg; reports about a century ago; cited from earlier work"}, "[3]": {"test_system": "patients with advanced cancer diseases", "assay": "Phase I dose-escalation trial of intravenously administered sodium selenite: toxicity and MTD", "assay_type": "in vivo, human", "method": "In a previous study, the present inventors carried out the first in-human phase-I trial to determine the MTD of intravenously administered sodium selenite in patients with advanced cancer diseases.\nThis phase I trial is an open-label dose-escalation study of i.v. administered sodium selenite. Each cohort consists of three patients who are treated with dosages regimens according to a predefined schedule having the two-step dosage regimen.\nSerious toxicity in primarily the brain and the heart has been recorded in patients treated with high doses of selenite.\nWith a few exceptions, all patients visited the clinic before and after infusion, at least once a week during the treatment, before each chemotherapy treatment and at the end of treatment. At these occasions, the medical history is recorded, and a physical examination is performed. Patients undergo CT or PET-CT examination one week before the start, three days after the completion of the selenite treatment and after the final chemotherapy treatment. Routine blood parameters are analysed before, during and after the treatment. The ECG is examined before the start and after both the selenite and chemotherapy treatments."}},
  "data": [
    {"smiles": "O=[Se](O)O", "note": "[sodium selenite]", "values": [
      {"measurement": "maximum tolerated dose", "setting": "[1]", "result": "approximately 10.2 mg/m^2"},
      {"measurement": "plasma selenite concentration at the end of the treatment", "setting": "[2]; high doses of repeated selenite administration", "result": "returned to the baseline levels"},
      {"measurement": "plasma selenite concentration with respect to the total dose", "setting": "[2]; in vivo", "result": "linear increase"},
      {"measurement": "toxic effects", "setting": "cancer patients", "result": "no incidence of toxic effects"},
      {"measurement": "Toxicity registered from similar dose, during similar time but as intermittent infusion", "setting": "[3]; 3.0 mg/m^2, cohort 2", "result": "3.0 mg/m^2, cohort 2, no certain toxicity,"},
      {"measurement": "Toxicity registered from similar dose, during similar time but as intermittent infusion", "setting": "[3]; 4.5 mg/m^2, cohort 3", "result": "very mild toxicity"},
      {"measurement": "Toxicity registered from similar dose, during similar time but as intermittent infusion", "setting": "[3]; 6.0 mg/m^2, cohort 4", "result": "6.0 mg/m^2, cohort 4, mild toxicity"},
      {"measurement": "Toxicity registered from similar dose, during similar time but as intermittent infusion", "setting": "[3]; 9.0 mg/m2, cohort 5", "result": "gr 1 toxicity"},
      {"measurement": "Toxicity registered from similar dose, during similar time but as intermittent infusion", "setting": "[3]; 20.4 mg/m^2, cohort 7", "result": "grade 2 toxicity"},
      {"measurement": "Toxicity registered from similar dose, during similar time but as intermittent infusion", "setting": "[3]; 38.4 mg/m^2, cohort 10", "result": "38.4 mg/m^2, cohort 10, gr 3 & gr 4 toxicity"},
      {"measurement": "duration of dose-limiting toxicity (DLT)", "setting": "[3]; DLT appeared some hours after selenite infusion, without persisting toxicity or sequelae", "result": "6 to 8", "unit": "h"},
      {"measurement": "bone marrow toxicity", "setting": "[3]; at MTD dose (10.2 mg/m^2) and below", "result": "no bone marrow toxicity was evident"},
      {"measurement": "MTD for repeated infusions", "setting": "[3]; cohort 8, total dose given as intermittent infusion over similar time", "result": 30.6, "unit": "mg/m2"},
      {"measurement": "toxicity mainly observed as", "setting": "[3]; could be dose-limiting in spite of antiemetic treatment", "result": "nausea, vomiting and fatigue"},
      {"measurement": "most significant adverse effects", "setting": "[3]; especially at high dose levels such as beyond MTD", "result": "heart toxicity with signs of ischemia, confusion and unconsciousness"},
      {"measurement": "MTD", "setting": "[3]; intravenously administered, previous first in-human phase-I trial, well tolerated at doses up to this value", "result": 10.2, "unit": "mg/m^2"}
    ]}
  ]
}
